# According to US20030144477A1, “Immunodominant acetylcholine receptor alpha subunit peptide: MHC complexes” (Corixa Corporation, priority 2001, published 2003):
# Peptide text beside a SMILES is read from it.
# Legend:
# [1] = target: HLA-DR1; test: DELFIA europium-based competitive binding assay, HLA-DR1; design: species or system human; details: competitive binding to HLA-DR1
# [2] = target: HLA-DR3 (a mix of DRB1*0301 and DRB3*0101); test: DELFIA competitive binding assay against biotinylated MBP 84-102, solubilized HLA-DR3; design: species or system human; details: for IC50: competitive binding to solubilized HLA-DR3, pH 5.5, vs biotinylated MBP 84-102; for affinity for HLA-DR3: in words, from IC50
# Description: (§1) Important peptides in MG can be identified, for example, by screening a set of overlapping AChR peptides for binding to HLA-DR2 and HLA-DR3. The binding affinity of a peptide to the MHC compound can be measured using a variety of binding assays known to those of skill in the art. An example of suitable binding assay is the europium-based competitive binding assay (see, e.g., Tompkins et al. (1993) J. Immunol. Methods 163:209-216). Additionally, the capacity of the peptides of the invention to induce a T cell response can be determined using a variety of standard methods, known to those of skill in the art, as described below.
# (§2) A set of 68 overlapping AChRα peptides (14 mer with 7 amino acids overlapping) was tested by dissociation-enhanced lenthanide fluoroimmunoassay (“DELFIA”) competitive binding assay for their relative affinity to […]. […] The sequence of the AChRα subunit is shown with each of the transmembrane regions (M1-M4) indicated by a shaded box.) Ten-fold dilutions (preferably 1-100,000 nM) of unlabeled AChRα peptides were co-incubated at pH 5.5 with the biotinylated myelin basic protein peptide MBP 84-102, and the IC50 of binding to solubilized HLA-DR2 (a mix of DRB1*1501 and DRB5*0101) or HLA-DR3 (a mix of DRB1*0301 and DRB3*0101) was measured. Measurement of the IC50 is preferably done by europium-streptavidin dissociation-enhanced lenthanide fluoroimmunoassay (DELFIA) and the IC50 typically calculated by four parameter fit analysis with the software program SOFTmax Pro. FIG. 2 lists the IC50s of each AChRα peptide binding to HLA-DR2 and HLA-DR3.
# [3] = target: solubilized HLA-DR2 (a mix of DRB1*1501 and DRB5*0101) (Homo sapiens, UniProt P01903+P01911+Q30154); test: DELFIA competitive binding assay against biotinylated MBP 84-102, solubilized HLA-DR2; details: for relative affinity for HLA-DR2: in words, from IC50 / 1/IC50 plot
# Description: as §1
# A set of 68 overlapping AChRα peptides (14 mer with 7 amino acids overlapping) was tested by dissociation-enhanced lenthanide fluoroimmunoassay (“DELFIA”) competitive binding assay for their relative affinity to HLA-DR4. […] Measurement of the IC50 is preferably done by europium-streptavidin dissociation-enhanced lenthanide fluoroimmunoassay (DELFIA) and the IC50 typically calculated by four parameter fit analysis with the software program SOFTmax Pro.
# [4] = target: solubilized DR4 (HLA-DR4); test: europium-based competitive binding assay using solubilized DR4; design: species or system human; details: competitive binding to solubilized DR4
# Method: as §2
# In addition, the relative affinity for HLA-DR4 of a set of sixty nine synthetic overlapping peptides of AchRα (14 mer with 7 amino acids overlapping) was measured by a europium-based competitive binding assay using solubilized DR4. The concentration of AchR peptides required to inhibit 50% binding of a known DR4 binding peptide was calculated for each peptide. High affinity peptides were identified based on their IC50 value.
# [5] = system: PBMCs from MG patients and normal healthy individuals; test: modified ELISPOT assay of T cell reactivity (γ-IFN spots, reactive index); assay type: cell-based, human; details: reactive index above two; HLA type ignored; 9 MG patients vs 30 normals
# Description: In addition, a modified ELISPOT assay, termed the Clonal Expansion ELISA-Spot (or CEE-SPOT) assay can also be used in the context of the present invention. In the CEE-SPOT assay, PBMCs are stimulated with antigen for an appropriate amount of time (e.g., 7 days) to promote proliferation of the antigen-specific T cells prior to re-stimulation and lymphokine capture (e.g., on day 10). […] The production of lymphokines can be measured using this assay, including, e.g., IL-2, IL-4, etc. Typically, lymphokine is captured on a filter, preferably a PVDF filter to improve the background and intensity of the spots. Spot counting is typically carried out using videocamera imaging and computer analysis. This type of assay can also be used to identify epitopes derived from natural processing, by first stimulating T cells with the whole protein and then re-stimulating them with peptides derived from the protein.
# T cell reactivity of the above peptides to patient and normal healthy individual PBMCs was measured by modified ELISPOT assay. PBMCs obtained from 30 normals and 9 MG patients were included in this study. The above peptides along with TT/PPD as positive control and media as negative control were tested for T cell reactivity. […] Antigen specific cell stimulation profile for each antigen was measured by the secretion of γ-IFN detected as spots using a pair of anti-γIFN antibodies set. […]
# [6] = system: HLA-DR2; test: IC50
# Description: Table printed on a drawing sheet, FIGURE 4
# The best fit of AChRα peptide sequences to published HLA-DR2 motifs is indicated along with the IC50 value.
# First copying reader's note: Sequences are printed with horizontal offsets as a motif alignment; the offsets are not reproduced in the grid.
compound,measurement,setting,value
CC(C)C[C@H](NC(=O)[C@H](CCCCN)NC(=O)[C@H](C)NC(=O)[C@@H](NC(=O)[C@@H](N)CC(C)C)C(C)C)C(=O)N[C@@H](Cc1ccccc1)C(=O)N[C@@H](CCCCN)C(=O)N[C@@H](CC(=O)O)C(=O)N[C@@H](Cc1ccc(O)cc1)C(=O)N[C@@H](CO)C(=O)N[C@@H](CO)C(=O)N[C@H](C(=O)N[C@H](C(=O)N[C@@H](CCCNC(=N)N)C(=O)N1CCC[C@H]1C(=O)N[C@H](C(=O)O)C(C)C)C(C)C)C(C)C [AChRα 7-22],IC50,[1],> 100 µM
same,IC50,[2],6.15 µM
same,affinity for HLA-DR3,[2],high affinity
CC[C@H](C)[C@H](NC(=O)[C@H](CCC(N)=O)NC(=O)[C@H](CC(N)=O)NC(=O)[C@@H](NC(=O)[C@H](CCC(=O)O)NC(=O)[C@H](CC(=O)O)NC(=O)[C@@H](NC(=O)[C@H](CC(N)=O)NC(=O)[C@@H](NC(=O)[C@H](CC(C)C)NC(=O)[C@H](CCC(N)=O)NC(=O)[C@@H](NC(=O)[C@H](CC(C)C)NC(=O)[C@@H](N)CCC(N)=O)[C@@H](C)CC)[C@@H](C)CC)C(C)C)C(C)C)C(=O)O [AChRα 36-49] (H-QLIQLINVDEVNQI-OH; N-terminus and C-terminus assumed),IC50,[1],11.2 µM
same,IC50,"[3]; competitive binding to solubilized HLA-DR2, pH 5.5, vs biotinylated MBP 84-102",11 µM
same,IC50,[2],7.3 µM
same,affinity for HLA-DR3,[2],high affinity
same,IC50,[4],3.63 µM
same,per cent of patients that show reactivity compared with per cent of normal healthy individuals,[5],approximately twice
CC[C@H](C)[C@H](NC(=O)[C@H](Cc1ccccc1)NC(=O)[C@H](Cc1ccc(O)cc1)NC(=O)[C@H](CC(C)C)NC(=O)[C@@H]1CCCN1C(=O)[C@H](CC(C)C)NC(=O)[C@H](CCCNC(=N)N)NC(=O)[C@H](CCC(N)=O)NC(=O)[C@H](CCSC)NC(=O)[C@@H](NC(=O)[C@H](Cc1ccccc1)NC(=O)[C@@H](N)Cc1c[nH]cn1)C(C)C)C(=O)N[C@H](C(=O)N[C@@H](CC(N)=O)C(=O)O)C(C)C [AChRα 204-217],IC50,[1],1.75 µM
same,IC50,[2],71.3 µM
DTPYLDITYHFVMQRLPL [AChRα 195-212],affinity for HLA-DR3,[2],high affinity
I P N I M F F S T M K R P S R E K Q (IPNIMFFSTMKRPSREKQ) [AChRα 320-337],IC50,[6],6.61 µM
MKLGTWTYDGSVVAINPESD [AChRα 144-163],affinity for HLA-DR3,[2],high affinity
"NWVRKVFIDTIPNIMFFS [AChRα 310-327, AChRα subunit peptide fragment, residues 310-327]",relative affinity for HLA-DR2,[3],high relative affinity
"TGHITWTPPAIFKS [AChRα 113-126, AChRα subunit peptide fragment, residues 113-126] [listing 1 of 2 here]",IC50,[6],2.83 µM
"TGHITWTPPAIFKS [AChRα 113-126, AChRα subunit peptide fragment, residues 113-126] [listing 2 of 2 here]",relative affinity for HLA-DR2,[3],high relative affinity
V E V T V G L Q L I Q L I N (VEVTVGLQLIQLIN) [AChRα 27-42],IC50,[6],9.18 µM
V I I P C L L F S F L T G L (VIIPCLLFSFLTGL) [AChRα 218-231],IC50,[6],6.79 µM
